Data on 13 compounds can be found in patent US20250122181A1, “BENZIMIDAZOLES AS MODULATORS OF IL-17” (Janssen Pharmaceutica NV, priority 2021, published 2025).

In assay [1] the test system is IL-17A-induced G-CSF production in human normal keratinocyte (NHK). Briefly: NHK Assay: IL-17A-induced G-CSF production in human normal keratinocyte. In kind it is cell-based. Particulars: 24 h, IL-17A 5 ng/mL, simple average if tested more than once. As for the experimental part: IL-17A acts directly on keratinocytes through binding to dimeric receptor IL-17RA/RC and drives the production of a number of inflammatory mediators known to be elevated in psoriasis lesional tissue. IL-17A small molecule inhibitors that block the IL-17A to interact with IL-17R would inhibit the IL-17A signaling in its targeted cells such as keratinocytes. The compound functional activity is evaluated for its impact on IL-17A-induced G-CSF production in human normal keratinocyte (NHK).
Adult normal human keratinocytes are cultured in keratinocyte growth medium (Lonza) in a flask till reaching ˜90% confluence, then cells are transferred to a 384-well plate at density of 3000-4000 cell/well. Recombinant human IL-17A (Gibco PHC9174) is pre-incubated with titrated compound or DMSO for 1 h at rt then added to the cell culture plate. The final concentration of IL-17A is 5 ng/mL and DMSO is 0.2%, in the culture containing 5% FBS. Cells are cultured/treated for 24 h at 37° C. Supernatants are collected and G-CSF production is measured through HTRF technology using Human G-CSF Kit (CisBio). G-CSF concentration was extrapolated from the standard curve and IC50 is determined using GraphPad Prism. Cell viability is also evaluated using CellTiter-Glo kit (Promega) and effect of compound on cell viability is compared to DMSO control.

Assay [2] addresses IL-17A(FLAG-Tagged): IL-17RA(His-Tagged) (Homo sapiens, UniProt Q16552, K93Q). Briefly: IL-17A(FLAG-Tagged): IL-17RA(His-Tagged) Binding Disruption Eu-HTRF Assay, Protocol 1. Particulars: Protocol 1, FLAG tagged IL-17A 2.5 nM; simple average if tested more than once. From the text:
An antibody directed against the FLAG tag of IL-17A (SEQ ID NO: 1) is labeled with the HTRF donor chromophore (Europium-cryptate). IL-17A is present as a dimer that is “locked into” this quaternary structure due to the formation of loop-spanning […] disulfide bridges. The construct of IL-17RA used in the assay excludes the […] portion of the receptor and is fused to a C-terminal 10×His tag (SEQ ID NO:2). An antibody directed against the His tag of the IL-17RA chimera is labeled with the HTRF acceptor chromophore (“D2”). The fluorescence-resonance energy transfer (FRET) depends on the vicinity of the donor chromophore to the acceptor, and interruption of the binding between the IL-17A and IL-17RA causes the reduction/loss of FRET. Therefore, this assay allows to evaluate the compound effect on the binding IL-17A and IL-17RA by monitoring the fluorescence intensity of donor vs acceptor. The assay was run using either Protocol 1 or Protocol 2 as described below.
Protocol 1. 40 nl of 2-fold serial diluted compound solution for total 22 dilution points is added into each well of a 1536-well, white, low-volume, non-binding plate (Greiner #782904), then 2 μl of FLAG tagged IL-17A at 2× final concentration (2.5 nM) in solution of PBS+0.01% Triton-X100 is added to each well. The assay plate is briefly centrifuged then incubated for 1 h at rt. A mixed solution is prepared containing 2×5 nM 10HIS×IL-17RA, 2×2.5 nM Eu-anti-FLAG (CISBIO), 2×5 nM D2-anti-HIS (CISBIO) in PBS+0.01% Triton-X100+200 mM Potassium Fluoride (Sigma 60238) and 2 μl of mix is added to each well of the assay plate. The plate is briefly centrifuged then incubated for 2 h at rt. The HTRF intensities at the wavelength of donor (620 nm) and acceptor (665 nm) are measured using BMG Pherastar. The ratio between intensities at two wavelengths is calculated and plotted against the compound concentration and the data is fitted to a one-site competition model to yield IC50 of the compound.

SMILES strings stand for the structures. A value given as a limit tells only on which side of the number the result lay.

UniProt Q16552, sequence (Q16552 with tags, fused parts or gaps K93Q): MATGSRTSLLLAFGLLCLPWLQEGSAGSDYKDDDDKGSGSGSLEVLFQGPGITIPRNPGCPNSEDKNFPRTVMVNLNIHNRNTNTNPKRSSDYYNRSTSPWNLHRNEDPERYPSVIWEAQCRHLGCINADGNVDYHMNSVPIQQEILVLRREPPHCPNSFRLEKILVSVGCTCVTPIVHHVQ

Take `[2H]C1([2H])[C@H](C(F)(F)F)NC(=O)N1[C@@H](c1ccc2[nH]c([C@@H](NC(=O)c3nonc3C)[C@@H](C)O[C@H](C)C(F)(F)F)nc2c1)C1CC1` (relative stereo) [Example 8, N-((1R*,2R)-1-(5-((R)-Cyclopropyl((R*)-2-oxo-4-(trifluoromethyl)imidazolidin-1-yl-5,5-d2)methyl)-1H-benzo[d]imidazol-2-yl)-2-(((R)-1,1,1-trifluoropropan-2-yl)oxy)propyl)-4-methyl-1,2,5-oxadiazole-3-carboxamide]: the concentration for half-maximal inhibition (IC50) in assay [1] (Homo sapiens, Keratinocyte) is over 100 nM; in assay [2], 50 to 100 nM.

In the case of `[2H]C1([2H])[C@@H](C(F)(F)F)NC(=O)N1[C@@H](c1ccc2[nH]c([C@@H](NC(=O)c3nonc3C)[C@@H](C)O[C@H](C)C(F)(F)F)nc2c1)C1CC1` (relative stereo) [Example 9, N-((1R*,2R)-1-(5-((R)-Cyclopropyl((S*)-2-oxo-4-(trifluoromethyl)imidazolidin-1-yl-5,5-d2)methyl)-1H-benzo[d]imidazol-2-yl)-2-(((R)-1,1,1-trifluoropropan-2-yl)oxy)propyl)-4-methyl-1,2,5-oxadiazole-3-carboxamide], the 50% inhibitory concentration (IC50) in assay [1] (Homo sapiens, Keratinocyte) is under 50 nM; in assay [2] it was under 50 nM.

Take `[2H]C1([2H])[C@@H](C(F)(F)F)NC(=O)N1[C@@H](c1ccc2[nH]c([C@@H](NC(=O)c3nonc3C)[C@@H](C)O[C@@H](C)C(F)(F)F)nc2c1)C1CC1` (relative stereo) [Example 12, N-((1R*,2R)-1-(5-((R)-Cyclopropyl((S*)-2-oxo-4-(trifluoromethyl)imidazolidin-1-yl-5,5-d2)methyl)-1H-benzo[d]imidazol-2-yl)-2-(((S)-1,1,1-trifluoropropan-2-yl)oxy)propyl)-4-methyl-1,2,5-oxadiazole-3-carboxamide]: the IC50 in assay [1] and in assay [2] was under 50 nM each time.

As to `C[C@H](c1ccc2[nH]c([C@H](COC(C)(C)C(F)(F)F)NC(=O)c3nonc3C3CC3)nc2c1)N1CC(F)(F)CNC1=O` (relative stereo) [Example 25, 4-Cyclopropyl-N—((R)-1-(5-((R*)-1-(5,5-difluoro-2-oxotetrahydropyrimidin-1(2H)-yl)ethyl)-1H-benzo[d]imidazol-2-yl)-2-((1,1,1-trifluoro-2-methylpropan-2-yl)oxy)ethyl)-1,2,5-oxadiazole-3-carboxamide], the half-inhibitory concentration (IC50) in assay [1] (Homo sapiens, Keratinocyte) is under 50 nM; in assay [2], under 50 nM.

For the compound `Cc1nonc1C(=O)N[C@@H](COC(C)(C)C(F)(F)F)c1nc2cc([C@@H](C)N3CC(F)(F)CNC3=O)ccc2[nH]1` (relative stereo) [Example 26, N—((R)-1-(5-((R*)-1-(5,5-Difluoro-2-oxotetrahydropyrimidin-1(2H)-yl)ethyl)-1H-benzo[d]imidazol-2-yl)-2-((1,1,1-trifluoro-2-methylpropan-2-yl)oxy)ethyl)-4-methyl-1,2,5-oxadiazole-3-carboxamide], the IC50 was under 50 nM in assay [1] (Homo sapiens, Keratinocyte) and under 50 nM in assay [2].

Turning to `CC(C)n1nccc1C(=O)N[C@@H](COC(C)(C)C(F)(F)F)c1nc2cc([C@@H](C)N3CC(F)(F)CNC3=O)ccc2[nH]1` (relative stereo) [Example 27, N—((R)-1-(5-((R*)-1-(5,5-Difluoro-2-oxotetrahydropyrimidin-1(2H)-yl)ethyl)-1H-benzo[d]imidazol-2-yl)-2-((1,1,1-trifluoro-2-methylpropan-2-yl)oxy)ethyl)-1-isopropyl-1H-pyrazole-5-carboxamide], the IC50 in assay [1] (Homo sapiens, Keratinocyte) was under 50 nM; in assay [2], under 50 nM.

Consider `CC(C)n1nccc1C(=O)N[C@@H](COC(C)(C)C(F)(F)F)c1nc2nc(CN3C[C@H](C(F)(F)F)NC3=O)ccc2[nH]1` (relative stereo) [Example 36, 1-Isopropyl-N—((R*)-1-(5-(((R*)-2-oxo-4-(trifluoromethyl)imidazolidin-1-yl)methyl)-1H-imidazo[4,5-b]pyridin-2-yl)-2-((1,1,1-trifluoro-2-methylpropan-2-yl)oxy)ethyl)-1H-pyrazole-5-carboxamide], for which the half-maximal inhibitory concentration (IC50) in assay [1] (Homo sapiens, Keratinocyte) is under 50 nM; in assay [2] it was under 50 nM.

Regarding `CC(C)n1nccc1C(=O)N[C@@H](COC(C)(C)C(F)(F)F)c1nc2nc(CN3C[C@@H](C(F)(F)F)NC3=O)ccc2[nH]1` (relative stereo) [Example 37, 1-Isopropyl-N—((R*)-1-(5-(((S*)-2-oxo-4-(trifluoromethyl)imidazolidin-1-yl)methyl)-1H-imidazo[4,5-b]pyridin-2-yl)-2-((1,1,1-trifluoro-2-methylpropan-2-yl)oxy)ethyl)-1H-pyrazole-5-carboxamide], the IC50 is over 100 nM in assay [1] (Homo sapiens, Keratinocyte) and over 100 nM in assay [2].

Regarding `CC(C)(OC[C@H](NC(=O)c1nonc1C1CC1)c1nc2nc(CN3C[C@H](C(F)(F)F)NC3=O)ccc2[nH]1)C(F)(F)F` (relative stereo) [Example 38, 4-Cyclopropyl-N—((R*)-1-(5-(((R*)-2-oxo-4-(trifluoromethyl)imidazolidin-1-yl)methyl)-1H-imidazo[4,5-b]pyridin-2-yl)-2-((1,1,1-trifluoro-2-methylpropan-2-yl)oxy)ethyl)-1,2,5-oxadiazole-3-carboxamide], the IC50 in assay [1] (Homo sapiens, Keratinocyte) is under 50 nM; in assay [2] it was under 50 nM.

Take `CC(C)(OC[C@H](NC(=O)c1nonc1C1CC1)c1nc2nc(CN3C[C@@H](C(F)(F)F)NC3=O)ccc2[nH]1)C(F)(F)F` (relative stereo) [Example 39, 4-Cyclopropyl-N—((R*)-1-(5-(((S*)-2-oxo-4-(trifluoromethyl)imidazolidin-1-yl)methyl)-1H-imidazo[4,5-b]pyridin-2-yl)-2-((1,1,1-trifluoro-2-methylpropan-2-yl)oxy)ethyl)-1,2,5-oxadiazole-3-carboxamide]: the concentration for half-maximal inhibition (IC50) in assay [1] (Homo sapiens, Keratinocyte) was over 100 nM; in assay [2], over 100 nM.

With `Cc1nonc1C(=O)N[C@@H](COC(C)(C)C(F)(F)F)c1nc2cc([C@H](N3CC(F)(F)CNC3=O)C3(C#N)CC3)ccc2[nH]1` (relative stereo) [Example 40, N—((R*)-1-(5-((S*)-(1-Cyanocyclopropyl)(5,5-difluoro-2-oxotetrahydropyrimidin-1(2H)-yl)methyl)-1H-benzo[d]imidazol-2-yl)-2-((1,1,1-trifluoro-2-methylpropan-2-yl)oxy)ethyl)-4-methyl-1,2,5-oxadiazole-3-carboxamide], the concentration for half-maximal inhibition (IC50) was over 100 nM in assay [1] (Homo sapiens, Keratinocyte) and 50 to 100 nM in assay [2].

Regarding `[2H]C1([2H])[C@H](C(F)(F)F)NC(=O)N1[C@@H](c1ccc2[nH]c([C@H](CC(C)(C)C(F)(F)F)NC(=O)c3nonc3C)nc2c1)C1CC1` (relative stereo) [Example 53, N—((S)-1-(5-((R)-Cyclopropyl((S*)-2-oxo-4-(trifluoromethyl)imidazolidin-1-yl-5,5-d2)methyl)-1H-benzo[d]imidazol-2-yl)-4,4,4-trifluoro-3,3-dimethylbutyl)-4-methyl-1,2,5-oxadiazole-3-carboxamide], the IC50 in assay [1] (Homo sapiens, Keratinocyte) was under 50 nM; in assay [2], under 50 nM.

Regarding `[2H]C1([2H])[C@@H](C(F)(F)F)NC(=O)N1[C@H](COC)c1ccc2[nH]c([C@H](COC(C)(C)C(F)(F)F)NC(=O)c3nonc3C)nc2c1` (relative stereo) [Example 55, N—((R*)-1-(5-((S)-2-methoxy-1-((S*)-2-oxo-4-(trifluoromethyl)imidazolidin-1-yl-5,5-d2)ethyl)-1H-benzo[d]imidazol-2-yl)-2-((1,1,1-trifluoro-2-methylpropan-2-yl)oxy)ethyl)-4-methyl-1,2,5-oxadiazole-3-carboxamide], the IC50 was under 50 nM in assay [1] (Homo sapiens, Keratinocyte) and under 50 nM in assay [2].
